Test results from patent US20240358692A1, “TREATMENT OF SCLERODERMA” (Aisa Pharma, Inc., priority 2023, published 2024).

System: participants with SSc-RP
Assay: SHAQ - Visual Analog Scale - Breathing Problems
Type: in vivo, human
Parameters: Visual Analog Scale-Breathing Problems, In Clinic Visit (Day 12), Mean / Visual Analog Scale-Breathing Problems, In Clinic Visit (Day 12), Median / SHAQ Visual Analogue Scale - Breathing Problems, In-Clinic Visit (Day 12), Mean / SHAQ Visual Analogue Scale - Breathing Problems, In-Clinic Visit (Day 12), Median / SHAQ Visual Analogue Scale - Breathing Problems, Change from Baseline, Median: scale not given here
Settings: for % improvement in Breathing: median, SHAQ, mITT Part A
Description: The standard, validated, patient reported outcome measures tool for SSc patients, the Scleroderma Health Assessment Questionnaire (SHAQ), will be used to assess the participant qualify of life. Details are attached in the Appendix. The participant quality of life will be scored, and a disability index calculated for each questionnaire completed by the patient at Screening and each in-clinic visit. The absolute change in participant quality of life from baseline to the end of each dosing period will be calculated similar to frequency data as before.
The standard, validated, patient reported outcome measures tool for SSc patients, the SHAQ, was collected at the time points specified in the study schedules (FIG. 2 and FIGS. 4A and 4B) to assess the participant's quality of life. The SHAQ included a Raynaud's VAS that will also be reported separately.

[1] = Any Cilnidipine (N = 17), Day 12, PP Population, Part A, Subject 01-110 excluded
[2] = Cilnidipine 10 mg, SSc patients, PP, Part A
[3] = Cilnidipine 20 mg, SSc patients, PP, Part A
[4] = Modified ITT Population-Part A, Day 12, dose cilnidipine 10 mg, tadalafil 5 mg, alone or combined as labelled
[5] = Modified ITT Population-Part A, dose cilnidipine 20 mg, tadalafil 5 mg, alone or combined as labelled
[6] = Pooled Cilnidipine (N = 8), Day 12, PP Population, Part A
[7] = pooled Cilnidipine 10 mg and Cilnidipine 10 mg + Tadalafil 5 mg
[8] = pooled Cilnidipine 20 mg and Cilnidipine 20 mg + Tadalafil 5 mg
[9] = pooled cilnidipine 10 mg and 20 mg arms (combination: + tadalafil 5 mg)

## COCCOC(=O)C1=C(C)NC(C)=C(C(=O)OC/C=C/c2ccccc2)C1c1cccc([N+](=O)[O-])c1 (centres unmarked) [Cilnidipine]
[1]
  SHAQ Visual Analogue Scale - Breathing Problems, Change from Baseline, Median: 0.000
  SHAQ Visual Analogue Scale - Breathing Problems, In-Clinic Visit (Day 12), Mean (SD): 1.388 (2.2783)
  SHAQ Visual Analogue Scale - Breathing Problems, In-Clinic Visit (Day 12), Median: 0.300
  SHAQ Visual Analogue Scale - Breathing Problems, Percent Change from Baseline, Mean (SD): 50.12 (200.437) %
  SHAQ Visual Analogue Scale - Breathing Problems, Percent Change from Baseline, Median: −16.00%
[2]
  SHAQ VAS Breathing Problems, Change from Baseline, Max: 0.00
  SHAQ VAS Breathing Problems, Change from Baseline, Mean: −0.300
  SHAQ VAS Breathing Problems, Change from Baseline, Min: −1.20,
  SHAQ VAS Breathing Problems, Change from Baseline, Q1: −0.600,
  SHAQ VAS Breathing Problems, Change from Baseline, Q3: 0.000
  SHAQ VAS Breathing Problems, Day 12, Max: 6.30
  SHAQ VAS Breathing Problems, Day 12, Mean: 1.575
  SHAQ VAS Breathing Problems, Day 12, Min: 0.00,
  SHAQ VAS Breathing Problems, Day 12, Q1: 0.000,
  SHAQ VAS Breathing Problems, Percent Change from Baseline, Max: −16.0
  SHAQ VAS Breathing Problems, Percent Change from Baseline, Mean: −16.00
  SHAQ VAS Breathing Problems, Percent Change from Baseline, Median: −16.00
  SHAQ VAS Breathing Problems, Percent Change from Baseline, Min: −16.0,
  SHAQ VAS Breathing Problems, Percent Change from Baseline, Q1: −16.00,
  SHAQ VAS Breathing Problems, Percent Change from Baseline, Q3: −16.00
Cilnidipine 20 mg (n = 3)
  % improvement in Breathing: 67% (median)
[3]
  SHAQ VAS Breathing Problems, Change from Baseline, Max: 0.60
  SHAQ VAS Breathing Problems, Change from Baseline, Median: −0.250
  SHAQ VAS Breathing Problems, Change from Baseline, Min: −2.00,
  SHAQ VAS Breathing Problems, Change from Baseline, Q1: −1.400,
  SHAQ VAS Breathing Problems, Change from Baseline, Q3: 0.450
  SHAQ VAS Breathing Problems, Day 12, Max: 2.50
  SHAQ VAS Breathing Problems, Day 12, Mean: 0.850
  SHAQ VAS Breathing Problems, Day 12, Median: 0.450
  SHAQ VAS Breathing Problems, Day 12, Min: 0.00,
  SHAQ VAS Breathing Problems, Day 12, Q1: 0.200,
  SHAQ VAS Breathing Problems, Day 12, Q3: 1.500
  SHAQ VAS Breathing Problems, Percent Change from Baseline, Max: 150.0
  SHAQ VAS Breathing Problems, Percent Change from Baseline, Min: −100.0,
  SHAQ VAS Breathing Problems, Percent Change from Baseline, Q1: −83.33,
  SHAQ VAS Breathing Problems, Percent Change from Baseline, Q3: 90.79
[4]
  Visual Analog Scale-Breathing Problems, Change from Baseline, Mean: −0.300
  Visual Analog Scale-Breathing Problems, Change from Baseline, Median: 0.000
  Visual Analog Scale-Breathing Problems, Percent Change from Baseline, Mean: −16.00%
  Visual Analog Scale-Breathing Problems, Percent Change from Baseline, Median: −16.00%
Modified ITT Population-Part A, Day 12, dose cilnidipine 20 mg, tadalafil 5 mg, alone or combined as labelled
  Visual Analog Scale-Breathing Problems, Change from Baseline, Median: −0.800
Modified ITT Population-Part A, dose cilnidipine 10 mg, tadalafil 5 mg, alone or combined as labelled
  Visual Analog Scale-Breathing Problems, In Clinic Visit (Day 12), Median: 0.000
[5]
  Visual Analog Scale-Breathing Problems, In Clinic Visit (Day 12), Mean: 0.300
  Visual Analog Scale-Breathing Problems, In Clinic Visit (Day 12), Median: 0.400
Pooled Cilnidipine 20 mg and Cilnidipine 20 mg + Tadalafil 5 mg (N = 8), Day 12, PP Population, Part A
  SHAQ Visual Analogue Scale - Breathing Problems, In-Clinic Visit (Day 12), Mean: 1.400
[6]
  SHAQ Visual Analogue Scale - Breathing Problems, Change from Baseline, Mean (SD): −0.388 (0.8725)
  SHAQ Visual Analogue Scale - Breathing Problems, In-Clinic Visit (Day 12), Mean (SD): 1.213 (2.2229)
  SHAQ Visual Analogue Scale - Breathing Problems, In-Clinic Visit (Day 12), Median: 0.200
  SHAQ Visual Analogue Scale - Breathing Problems, Percent Change from Baseline, Mean (SD): −0.22 (97.721) %
Pooled Cilnidipine (n = 7)
  % improvement in Breathing: 41% (median)
Pooled cilnidipine (n=4)
  % Δ from baseline, VAS Breathing mean: −8.2%
[7]
  VAS Breathing Problems Change from Baseline Max: 1.00
  VAS Breathing Problems Change from Baseline Mean: −0.175
  VAS Breathing Problems Change from Baseline Median: 0.000
  VAS Breathing Problems Change from Baseline Min: −1.20
  VAS Breathing Problems Change from Baseline Q1: −0.600
  VAS Breathing Problems Change from Baseline Q3: 0.000
  VAS Breathing Problems Day 12 Max: 6.30
  VAS Breathing Problems Day 12 Median: 0.000
  VAS Breathing Problems Day 12 Min: 0.00
  VAS Breathing Problems Day 12 Q1: 0.000
  VAS Breathing Problems Day 12 Q3: 2.350
  VAS Breathing Problems Percent Change from Baseline Max: 38.5%
  VAS Breathing Problems Percent Change from Baseline Mean: −26.05%
  VAS Breathing Problems Percent Change from Baseline Median: −21.33%
  VAS Breathing Problems Percent Change from Baseline Min: −100.0%
  VAS Breathing Problems Percent Change from Baseline Q1: −63.33%
  VAS Breathing Problems Percent Change from Baseline Q3: 11.23%
[8]
  VAS Breathing Problems Change from Baseline Max: 3.70
  VAS Breathing Problems Change from Baseline Median: 0.000
  VAS Breathing Problems Change from Baseline Min: −2.00
  VAS Breathing Problems Change from Baseline Q1: −0.800
  VAS Breathing Problems Change from Baseline Q3: 0.600
  VAS Breathing Problems Day 12 Max: 6.90
  VAS Breathing Problems Day 12 Median: 0.400
  VAS Breathing Problems Day 12 Min: 0.00
  VAS Breathing Problems Day 12 Q1: 0.000
  VAS Breathing Problems Day 12 Q3: 0.700
  VAS Breathing Problems Percent Change from Baseline Max: 600.0%
  VAS Breathing Problems Percent Change from Baseline Min: −100.0%
  VAS Breathing Problems Percent Change from Baseline Q1: −75.00%
  VAS Breathing Problems Percent Change from Baseline Q3: 150.00%
[9]
  VAS Breathing Problems Change from Baseline Max: 0.30
  VAS Breathing Problems Change from Baseline Median: 0.000
  VAS Breathing Problems Change from Baseline Min: −2.00
  VAS Breathing Problems Change from Baseline Q1: −1.200
  VAS Breathing Problems Change from Baseline Q3: 0.000
  VAS Breathing Problems Day 12 Max: 6.30
  VAS Breathing Problems Day 12 Median: 0.000
  VAS Breathing Problems Day 12 Min: 0.00
  VAS Breathing Problems Day 12 Q1: 0.000
  VAS Breathing Problems Day 12 Q3: 0.500
  VAS Breathing Problems Percent Change from Baseline Max: 150.0%
  VAS Breathing Problems Percent Change from Baseline Mean: −8.17%
  VAS Breathing Problems Percent Change from Baseline Median: −41.33%
  VAS Breathing Problems Percent Change from Baseline Min: −100.0%
  VAS Breathing Problems Percent Change from Baseline Q1: −83.33%
  VAS Breathing Problems Percent Change from Baseline Q3: 67.00%
